Measurements as given in publication PMC8767159, “Multiparameter Optimization of Trypanocidal Cruzain Inhibitors With In Vivo Activity and Favorable Pharmacokinetics” (Frontiers in Pharmacology, 2022).

Tests used:
[1] = In vitro metabolic stability in human liver microsomes; assay type: in vitro ADME; details: for CLint (L/h/kg) Human: Table S5; for CLint_u (L/h/kg) Human: Table S5, CLint/fu
Description: (§1) Isolated mouse (BD Gentest, Bedford, MA) and human liver microsomes (XenoTech, Kansas City, KS) ([Plant, 2004]) were added at a final concentration of 0.25 mg/ml to a solution containing 40 mM dibasic potassium phosphate and 10 mM monobasic potassium phosphate. Stock solutions of compounds at 5 mM were prepared in 100% DMSO. A 50:50 quenching solution of acetonitrile (ACN) and methanol (MeOH) was prepared. An NADPH solution was prepared at 10 mM. The preparations containing the microsomes were added to each well of the incubation plate (450 µl), which was then heated to 37°C for 10 min. The compounds were added to the respective wells of the test plate (2 µl). Then, 300 µl of the microsome preparation was added to each well of the test plate. The test plate was heated under gentle rotation for 5 min at 37°C. Next, 90 µl of the mixture contained in the test plate was added to the incubation plate, making a final volume of 540 µl. Samples were collected at the following incubation times: 0, 5, 10, 15, 20, and 30 min. To the 0 min sample plate, quenching solution (180 µl), NADPH (6 µl), and the incubation plate mixture (54 µl) were added to each well. The sample plate was then sealed, homogenized, and stored at 4°C. Then, 54 µl of the NADPH solution was added to the incubation plate, which was homogenized. Before the collection of each sample at the established times, 45 µl of the quenching solution was added to each well of the corresponding sample plates. After reaching the incubation times, 60 µl of the mixture contained in the incubation plate was added to the corresponding sample plates. The sample plates were then sealed and stored at 4°C. After the collection of the last sample (30 min), all sample plates were centrifuged at 3,800 rpm for 30 min. The supernatant from each well was collected and transferred to clean plates for mass spectrometry. Five to 10 µl of each sample was injected into an AB Sciex Triple Quad 5500 LC-MS/MS instrument.
(§2) For the biotransformation experiments and analysis of metabolites in microsomes, an Ultra-High-Pressure Liquid Chromatography instrument (UHPLC, Thermo Accela, Waltham, MA) ([Spaggiari et al., 2014]) connected to an automatic sample injector and a 1250 series pump was used. The UHPLC system was connected to a Thermo Fisher (Waltham, MA) LTQ Orbitrap mass spectrometer. For all other analyses, an AB Sciex Triple Quad 5500 coupled to a UHPLC equipped with a UV 1290 diode detector (Agilent Technologies, Santa Clara, CA) and a CTC PAL self-collecting system (LEAP Technologies, Carrboro, NC) was used. Q1 MS positive ion mode (300–500 Da) was used to detect the ions of the parent compounds. The UV detector was operated in spectral mode (250–280 nm). A Hypersil Gold C18 (2.1 mm × 100 mm, 1.9 µm, Thermo Fisher) HPLC column was used. The mobile phases were solvent A (0.1% formic acid in water) and solvent B (0.1% formic acid in ACN). The flow was adjusted to 0.55 ml/min, and the injection volume was adjusted to […]. The gradient started with 1% solvent B for 0.4 min, reached 40% (solvent B) in 2.3 min and 95% (solvent B) in 0.67 min, was maintained for 0.5 min, and returned to the initial condition of 1%. This condition was maintained for 1 min before injection of the next sample. The peak area ratio (peak area of the test compounds/peak area of the control compounds) was converted to the percentage of remaining compound, with the 0 min time point ratio set to 100%. T½ and CLint were calculated from the percentage of remaining compound versus the incubation time. From the resulting function, the slope (k) was determined. The equations T1/2 (min) = ln(2)/k and CLint in vitro (μL/min/mg) = k*1000/0.25 were used to determine T½ and CLint.

[2] = In vitro metabolic stability in mouse liver microsomes; assay type: in vitro ADME; details: for CLint (L/h/kg) Mouse: Table S5; for CLint_u (L/h/kg) Mouse: Table S5, CLint/fu
Description: as §1, §2

[3] = Fraction unbound by equilibrium dialysis; assay type: in vitro ADME; details: Table S5; fraction unbound
Description: The fraction unbound (fu) ([Masimirembwa et al., 2003]) of the test compounds was determined after incubation with different media, namely, plasma, microsomes, and buffer with 10% FCS. Equilibrium dialysis was performed in a 96-well plate (HT-Dialysis, Gales Ferry, CT) in which each well was divided by a semipermeable membrane (12–14 kDa cutoff). The test compounds diluted in either plasma, microsome suspension, or buffer were added to one side of the membrane. Potassium phosphate buffer (50 mM, pH 7.4) was added to the other side of the membrane. A standard curve was used to calculate the compound concentration (fu) on each side of the membrane. Stock solutions of each compound were prepared in 100% DMSO to obtain a final concentration of 1 mM. The following compound concentrations were used: 1, 2, 20, 200, 2,000 and 5,000 nM. To 500 μl of medium, 0.5 μl of the compound stock solution was added, and this was applied to one side of the well. Each compound was evaluated in triplicate. Next, the plate was assembled, sealed, and incubated at 37°C under rotation (150 rpm) for 4 h. After the incubation period, the plates were subjected to LC-MS/MS.

cruzain = target: T1, cruzain (Trypanosoma cruzi, UniProt P25779); experiment: Cruzain enzyme inhibition assay (cleavage of fluorogenic substrate Z-FR-AMC); assay type: biochemical; details: for inhibition at 100 µM: compound 100 µM, mean of three measures
T1 construct: made in house; host or cells: Escherichia coli (strain M15)
T1 sequence (P25779 123-337 limits assumed): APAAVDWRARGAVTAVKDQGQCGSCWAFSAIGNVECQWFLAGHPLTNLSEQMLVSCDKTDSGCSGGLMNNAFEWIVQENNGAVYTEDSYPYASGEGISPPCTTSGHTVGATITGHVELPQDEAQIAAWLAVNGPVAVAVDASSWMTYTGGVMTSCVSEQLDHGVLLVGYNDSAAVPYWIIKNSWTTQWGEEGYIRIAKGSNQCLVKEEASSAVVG
Description: Pro-cruzain truncated at the C-terminus was expressed and purified using a previously described protocol ([Ferreira et al., 2019]). Escherichia coli (strain M15) cultures were grown overnight at 37°C and 200 rpm in Luria Bertani (LB) medium supplemented with ampicillin (100 μg/ml) and kanamycin (50 μg/ml). Next, the cultures were diluted 10-fold in fresh LB medium supplemented with 0.5 M NaCl, 0.2% glucose, 1 mM betaine, 0.5 M sorbitol, 100 μg/ml ampicillin, and 50 μg/ml kanamycin and incubated at 37°C and 200 rpm. At an optical density (OD600) of 0.9, the cultures were incubated at 47°C for 20 min to promote the expression of chaperones. Then, the expression of cruzain was induced by adding isopropyl β-D-thiogalactopyranoside (IPTG) to a final concentration of 0.2 mM, which was followed by overnight incubation of the cultures at 20°C and 200 rpm. Next, the cultures were centrifuged (5,000 rpm, 30 min, 4°C), and the cells were suspended in 50 ml of lysis buffer (300 mM NaCl, 50 mM Tris-HCl, and 1.6 mg/ml lysozyme, pH 8.0) per liter of culture and lysed by sonication (12 cycles of 30 s). This cell lysate was centrifuged (9,000 rpm, 30 min, 4°C), and the supernatant was collected. Cruzain was precipitated by incubation with 35% ammonium sulfate (2 h), and this suspension was centrifuged at 9,000 rpm for 30 min at 4°C. The precipitated cruzain was resuspended in lysis buffer, and the sample was dialyzed to eliminate ammonium sulfate. The soluble fraction of the dialysate was loaded on a Ni−NTA column (Qiagen, Hilden, Germany), and the contaminants were washed using washing buffer (300 mM NaCl, 50 mM Tris-HCl, and 10 mM imidazole, pH 8.0). Cruzain was eluted by applying an increasing imidazole gradient: 25, 50, 75, 100, and 250 mM. The fractions containing cruzain were pooled together and dialyzed against 1.5 L of 0.1 M acetate buffer, pH 5.5, and then concentrated to 0.5 mg/ml. Pro-cruzain was activated by incubation with activation buffer (100 mM sodium acetate, pH 5.5, 10 mM EDTA, 5 mM DTT, and 1 M NaCl) at 37°C. […] After activation, the enzyme was diluted 20-fold in binding buffer (20 mM sodium phosphate and 150 mM NaCl, pH 7.2) and added to thiopropyl Sepharose 6B resin (GE Healthcare Life Sciences, Pittsburgh, PA). After overnight incubation at 4°C, the resin was loaded on a column, and cruzain was eluted with binding buffer supplemented with 20 mM DTT. Fractions containing cruzain were pooled together and stored in 0.1 M sodium acetate, pH 5.5, at −80°C.
Cruzain activity was followed by monitoring the cleavage of the fluorogenic substrate Z-Phe-Arg-aminomethyl coumarin (Z-FR-AMC), as previously described ([Ferreira et al., 2019]), using 96-well flat-bottom black plates and wavelengths of 355 nm for excitation and 460 nm for emission. All cruzain assays were performed in 0.1 M sodium acetate buffer with 5 mM dithiothreitol (DTT) and 0.01% Triton X-100, pH 5.5. […] The cleavage of the substrate was monitored for 5 min, and the activity was calculated based on the initial reaction rates compared with the rate of a DMSO control at 30°C. The IC50 values were independently calculated by considering the rate measurements for at least six inhibitor concentrations, each evaluated in triplicate. To determine the mechanism of cruzain inhibition, eight concentrations of the substrate Z-FR-AMC and four concentrations of the inhibitor were employed, each in triplicate. Kinetic parameters were determined using the SigmaPlot (Systat Software Inc., Erkrath, Germany) enzyme kinetics module. Compounds were tested in two or three independent experiments. All enzyme assays were performed using varying Triton X-100 concentrations (0, 0.01, and 0.1%) ([Ferreira et al., 2009]). Compound concentrations were 100 μM in the single-dose percentage inhibition assays.

Compound | CLint (L/h/kg) Human [1] [L/h/kg] | CLint_u (L/h/kg) Human [1] | CLint (L/h/kg) Mouse [2] [L/h/kg] | CLint_u (L/h/kg) Mouse [2] | fu [3] | inhibition at 100 µM (cruzain) [%] | IC50 (cruzain; 1.5 nM cruzain, 5.0 µM Z-FR-AMC, mean ± SD of 2–3 assays, read-out: IC50 (µM) against cruzain) [µM]
O=C(CCOc1ccccc1)NCCc1c[nH]c2ccccc12 [Compound 58] | 14.20 | 16.99 L/h/kg | 536.00 | 641.15 L/h/kg | 0.84 | – | –
O=Cc1c(OCC(=O)NCCc2nc3ccccc3[nH]2)ccc2ccccc12 [Compound 45] | 37.30 | 71.18 L/h/kg | 669.00 | 1,276.72 L/h/kg | 0.52 | – | –
COc1cc(OCC(=O)NCCc2nc3ccccc3[nH]2)ccc1[N+](=O)[O-] [Compound 16] | – | – | – | – | – | 62 | –
Cc1cc(C)c(C#N)c(SCC(=O)NCCc2c[nH]c3ccccc23)n1 [Compound 60] | 155.00 | 194.48 L/h/kg | 485.00 | 608.53 L/h/kg | 0.79 | – | –
O=C(CSc1ccccc1)NCCc1nc2ccccc2[nH]1 [Compound 48] | 9.07 | 11.38 L/h/kg | 234.00 | 293.60 L/h/kg | 0.80 | – | –
CC(=O)NCCc1nc2ccccc2n1CCOc1ccccc1Br [Compound 57] | 9.38 | 9.97 L/h/kg | 306.00 | 325.19 L/h/kg | 0.94 | – | –
CC(=O)NCCc1nc2ccccc2n1CCOc1ccccc1 [Compound 55] | 1.78 | 1.94 L/h/kg | 35.90 | 39.06 L/h/kg | 0.91 | – | –
O=C(COc1ccccc1F)NCCc1nc2ccccc2[nH]1 [Compound 39] | 7.03 | 7.45 L/h/kg | 125.00 | 132.56 L/h/kg | 0.94 | – | –
CC(=O)Nc1ccccc1OCC(=O)NCCc1nc2ccccc2[nH]1 [Compound 43] | 3.94 | 3.94 L/h/kg | 10.30 | 10.30 L/h/kg | 1.00 | – | –
COC(=O)c1cccc2cc(OCC(=O)NCCc3nc4ccccc4[nH]3)ccc12 [Compound 14] | – | – | – | – | – | 92 | 8.3 ± 2.1
COc1cccc(C(=O)CCn2c(CCNC(=O)COc3ccc4ccccc4c3Br)nc3ccccc32)c1 [Compound 62] | 125.00 | 5,186.72 L/h/kg | 331.00 | – | 0.02 | – | –
O=C(COc1ccc2ccccc2c1)NCCc1nc2ccccc2o1 [Compound 51] | 35.40 | 65.56 L/h/kg | 618.00 | 1,144.44 L/h/kg | 0.54 | – | –
O=C(COc1cccc2ccccc12)NCCc1nc2ccccc2[nH]1 [Compound 44] | 23.80 | 70.62 L/h/kg | 504.00 | 1,495.55 L/h/kg | 0.34 | – | –
